Drawing on patent US7906656B2, “Iodopyrazolyl carboxanilides” (Bayer CropScience AG, priority 2003, dated 2011), this text covers pest or weed control and Efficacy in % for 22 molecules.

In one assay the test system is Pyrenophora teres. Put plainly: Pyrenophora teres test (barley)/protective. In kind it is in vivo. Conditions: 192 h, protective, application rate 500 g/ha, evaluation 8 days after inoculation, read-out: Efficacy in %. As for the experimental part:
(§1) To produce a suitable preparation of active compound, 1 part by weight of active compound is mixed with the stated amounts of solvent and emulsifier, and the concentrate is diluted with water to the desired concentration. To test for protective activity, young plants are sprayed with the preparation of active compound at the stated application rate. After the spray coating has dried on, the plants are sprayed with a conidia suspension of Pyrenophora teres. The plants remain in an incubation cabin at 20° C. and 100% relative atmospheric humidity for 48 hours. The plants are then placed in a greenhouse at a temperature of about 20° C. and a relative atmospheric humidity of about 80%. Evaluation is carried out 8 days after the inoculation. 0% means an efficacy which corresponds to that of the control, whereas an efficacy of 100% means that no infection is observed.
`CC(C)CC(C)c1ccccc1NC(=O)c1cn(C)nc1I` (stereo not shown) [drawing 102]: the pest or weed control at 500 g/ha amounted to 100%.

As for `CC(=O)N(C(=O)c1cn(C)nc1I)c1ccccc1C(C)CC(C)C` (stereo not shown) [drawing 109], the pest or weed control at 500 g/ha was 100%.

With `Cn1cc(C(=O)Nc2ccccc2-c2ccc(Cl)c(F)c2)c(I)n1` [drawing 103], the pest or weed control at 500 g/ha was determined as 100%.

Take `Cn1cc(C(=O)Nc2ccccc2-c2ccc(I)cc2)c(I)n1` [drawing 104]: the pest or weed control at 500 g/ha is 100%.

Regarding `CC(CC(C)(C)C)c1ccccc1NC(=O)c1cn(C)nc1I` (stereo not shown) [drawing 101], the pest or weed control at 500 g/ha worked out at 93%.

Consider `Cn1cc(C(=O)Nc2ccccc2-c2ccc(F)c(Cl)c2)c(I)n1` [drawing 106], for which the pest or weed control at 500 g/ha came out at 100%.

On to `Cn1cc(C(=O)Nc2ccccc2-c2ccc(Br)cc2)c(I)n1` [drawing 107], for which the pest or weed control at 500 g/ha turned out to be 100%.

With `Cn1cc(C(=O)Nc2ccccc2-c2ccc(C(F)(F)F)c(F)c2)c(I)n1` [drawing 108], the pest or weed control at 500 g/ha was determined as 100%.

Consider `CC(C)CC(C)c1cc(F)ccc1NC(=O)c1cn(C)nc1I` (stereo not shown) [drawing 110], for which the pest or weed control at 500 g/ha turned out to be 100%.

For `Cn1cc(C(=O)Nc2ccccc2-c2ccc(Cl)cc2)c(I)n1` [drawing 105], the pest or weed control at 500 g/ha turned out to be 100%.

In another assay the test system is Puccinia recondita. The assay can be described thus: Puccinia test (wheat)/protective. The note with it: 240 h, protective, application rate 500 g/ha, evaluation 10 days after inoculation, read-out: Efficacy in %. In kind it is in vivo. The method, then:
as §1, with “of Puccinia recondita.” for “of Pyrenophora teres.”, “of 80% to promote the development of rust pustules.” for “of about 80%.”, “out 10” for “out 8”
For `CC(C)CC(C)c1ccccc1NC(=O)c1cn(C)nc1I` (stereo not shown) [drawing 112], the pest or weed control at 500 g/ha turned out to be 100%.

On to `CC(C)CC(C)c1cc(F)ccc1NC(=O)c1cn(C)nc1I` (stereo not shown) [drawing 121], for which the pest or weed control at 500 g/ha was 100%.

Regarding `Cn1cc(C(=O)Nc2ccccc2-c2ccc(Cl)c(F)c2)c(I)n1` [drawing 113], the pest or weed control at 500 g/ha is 100%.

Turning to `CC(CC(C)(C)C)c1ccccc1NC(=O)c1cn(C)nc1I` (stereo not shown) [drawing 111], the pest or weed control at 500 g/ha amounted to 100%.

For the molecule `Cn1cc(C(=O)Nc2ccccc2-c2ccc(F)c(Cl)c2)c(I)n1` [drawing 117], the pest or weed control at 500 g/ha stood at 100%.

As to `CC(C)CCc1ccccc1NC(=O)c1cn(C)nc1I` [drawing 122], the pest or weed control at 500 g/ha was determined as 100%.

On to `Cn1cc(C(=O)Nc2ccccc2-c2ccc(Cl)cc2)c(I)n1` [drawing 116], for which the pest or weed control at 500 g/ha is 100%.

As to `Cn1cc(C(=O)Nc2ccccc2-c2ccc(I)cc2)c(I)n1` [drawing 114], the pest or weed control at 500 g/ha was determined as 100%.

Consider `CC1CC(C)(C)c2cccc(NC(=O)c3cn(C)nc3I)c21` (stereo not shown) [drawing 123], for which the pest or weed control at 500 g/ha worked out at 100%.

The next assay concerns Alternaria solani. The assay can be described thus: Alternaria test (tomato)/protective. In kind it is in vivo. The note with it: protective, application rate 750 g/ha, evaluation 7 days after inoculation. The method, then: To produce a suitable preparation of active compound, 1 part by weight of active compound is mixed with the stated amounts of solvent and emulsifier, and the concentrate is diluted with water to the desired concentration. To test for protective activity, young tomato plants are sprayed with the preparation of active compound at the stated application rate. 1 day after the treatment, the plants are inoculated with a spore suspension of Alternaria solani and are then allowed to stand at 100% relative atmospheric humidity and 20° C. for 24 h. The plants are then allowed to stand at 96% relative atmospheric humidity and a temperature of 20° C. The evaluation is carried out 7 days after the inoculation. 0% means an efficacy which corresponds to that of the control, whereas an efficacy of 100% means that no infection is observed.
As for `Cn1cc(C(=O)Nc2ccc(F)cc2-c2ccc(Cl)c(Cl)c2)c(I)n1` [drawing 126], the Efficacy in % was determined as 100%.

With `Cn1cc(C(=O)Nc2ccccc2-c2ccc(F)c(Cl)c2)c(I)n1` [drawing 127], the Efficacy in % is given as 100%.

`Cn1cc(C(=O)Nc2ccccc2-c2ccc(I)cc2)c(I)n1` [drawing 125] yielded an Efficacy in % of 100%.
